molecular target: T1, PD-1/PD-L1 (Homo sapiens, UniProt Q9NZQ7); assay: PD-1/PD-L1 Homogenous Time-Resolved Fluorescence (HTRF) binding assay; settings: PD-L1-His 10 nM, PD-1-Ig 20 nM; numeric IC50; read-out: Range or IC50
T1 construct: made in house; host or cells: HEK293T
Procedure, shortened: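 Read-out is time-resolved FRET between europium cryptate-labelled anti-Ig (1 nM final) and APC-labelled anti-His (20 nM final), both dispensed onto the binding mix. Assay buffer: dPBS containing 0.1% bovine serum albumin and 0.05% Tween-20.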

T1 sequence (Q9NZQ7 with tags, fused parts or gaps): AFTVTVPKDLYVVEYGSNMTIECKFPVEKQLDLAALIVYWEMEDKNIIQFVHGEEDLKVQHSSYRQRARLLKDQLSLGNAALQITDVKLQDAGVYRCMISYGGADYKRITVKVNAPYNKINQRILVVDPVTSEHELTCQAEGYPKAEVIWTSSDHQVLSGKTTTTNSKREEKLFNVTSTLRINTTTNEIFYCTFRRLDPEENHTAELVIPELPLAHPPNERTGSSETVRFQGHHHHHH

| SMILES | IC50 |
| --- | --- |
| Cc1c(COc2cc(OCc3cncc(C#N)c3)c(CN3CCCC[C@H]3C(=O)O)cc2Cl)cccc1-c1cccc(OCCCNCCc2ncn(C)c2Cl)c1C [Example 2231, (2S)-1-(5-chloro-4-((3′-(3-(2-(5-chloro-1-methyl-1H-imidazol-4-yl)ethylamino)propoxy)-2,2′-dimethylbiphenyl-3-yl)methoxy)-2-((5-cyanopyridin-3-yl)methoxy)benzyl)piperidine-2-carboxylic Acid] | 12 nM |

same assay, conditions: PD-L1-His 10 nM, PD-1-Ig 20 nM; value given as range class; read-out: Range or IC50

| SMILES | IC50 |
| --- | --- |
| Cc1c(COc2cc(OCc3cc(F)cc(F)c3)c(CNC(C)(CO)CO)cc2Cl)cccc1-c1cccc(OCCCN2CC[C@@H](O)C2)c1C [Example 4520, (R)-2-((5-chloro-2-((3,5-difluorobenzyl)oxy)-4-((3′-(3-(3-hydroxypyrrolidin-1-yl)propoxy)-2,2′-dimethyl-[1,1′-biphenyl]-3-yl)methoxy)benzyl)amino)-2-methylpropane-1,3-diol] | 0.21 to 10 nM |
| Cc1c(COc2cc(O)c(CO)cc2Cl)cccc1-c1cccc(OCCCN2CC(N(C)C)C2)c1Cl [Example 2014, 4-chloro-5-((2′-chloro-3′-(3-(3-(dimethylamino)azetidin-1-yl)propoxy)-2-methyl-[1,1′-biphenyl]-3-yl)methoxy)-2-(hydroxymethyl)phenol] | 10 to 100 nM |
| Cc1c(COc2cc(OCc3cncc(C#N)c3)c(CN[C@H](CO)C(=O)O)cc2Cl)cccc1-c1cccc(OCC(=O)N2CC[C@H](O)C2)c1 [Example 1003, (R)-2-((5-chloro-2-((5-cyanopyridin-3-yl)methoxy)-4-((3′-(2-((S)-3-hydroxypyrrolidin-1-yl)-2-oxoethoxy)-2-methyl-[1,1′-biphenyl]-3-yl)methoxy)benzyl)amino)-3-hydroxypropanoic Acid] | 10 to 100 nM |
| Cc1c(COc2cc(OCc3cncc(C#N)c3)c(CNC(C)(CO)CO)cc2Cl)cccc1-c1cccc(OCCC(C)(C)O)c1Cl [Example 2080, 5-((4-chloro-5-((2′-chloro-3′-(3-hydroxy-3-methylbutoxy)-2-methyl-[1,1′-biphenyl]-3-yl)methoxy)-2-(((1,3-dihydroxy-2-methylpropan-2-yl)amino)methyl)phenoxy)methyl)nicotinonitrile] | 0.21 to 10 nM |
| Cc1c(COc2cc(OCc3cncc(C#N)c3)c(CNCCCN(C)C)cc2Cl)cccc1-c1cccc(CNCCCN(C)C)c1 [Example 3062, 5-((4-chloro-2-(((3-(dimethylamino)propyl)amino)methyl)-5-((3′-(((3-(dimethylamino)propyl)amino)methyl)-2-methyl-[1,1′-biphenyl]-3-yl)methoxy)phenoxy)methyl)nicotinonitrile] | 100 to 2000 nM |
| Cc1c(COc2cc(OCc3cncc(C#N)c3)c(CN3CCCC[C@H]3C(=O)O)cc2Cl)cccc1-c1cccc(OC[C@H]2CCN(CC(O)CO)C2)c1Cl (stereo partly drawn) [Example 2120, (2S)-1-(5-chloro-4-((2′-chloro-3′-(((3S)-1-(2,3-dihydroxypropyl)pyrrolidin-3-yl)methoxy)-2-methyl-[1,1′-biphenyl]-3-yl)methoxy)-2-((5-cyanopyridin-3-yl)methoxy)benzyl)piperidine-2-carboxylic Acid] | 0.21 to 10 nM |
| Cc1c(COc2cc(OCc3ccc(F)c(F)c3)c(CNC(CO)CO)cc2Cl)cccc1-c1cccc(OCCCN2CC[C@@H](O)C2)c1C [Example 4509, (R)-2-((5-chloro-2-((3,4-difluorobenzyl)oxy)-4-((3′-(3-(3-hydroxypyrrolidin-1-yl)propoxy)-2,2′-dimethyl-[1,1′-biphenyl]-3-yl)methoxy)benzyl)amino)propane-1,3-diol] | 0.21 to 10 nM |
| Cc1c(CCCCN2CC[C@@H](O)C2)cccc1-c1cccc(COc2cc(OCc3cncc(C#N)c3)c(CNC(CO)(CO)CO)cc2Cl)c1C [Example 4066, (R)-5-((4-chloro-2-(((1,3-dihydroxy-2-(hydroxymethyl)propan-2-yl)amino)methyl)-5-((3′-(4-(3-hydroxypyrrolidin-1-yl)butyl)-2,2′-dimethyl-[1,1′-biphenyl]-3-yl)methoxy)phenoxy)methyl)nicotinonitrile] | 0.21 to 10 nM |
| N#Cc1cncc(COc2cc(OCc3cccc(-c4cccc(OCCCN5CC[C@@H](O)C5)c4Cl)c3Cl)c(Cl)cc2CNC[C@H](O)CO)c1 [Example 2034, 5-((4-chloro-5-((2,2′-dichloro-3′-(3-((R)-3-hydroxypyrrolidin-1-yl)propoxy)-[1,1′-biphenyl]-3-yl)methoxy)-2-((((S)-2,3-dihydroxypropyl)amino)methyl)phenoxy)methyl)nicotinonitrile] | 0.21 to 10 nM |
| Cc1c(COc2cc(OCc3cncc(C(N)=O)c3)c(CN[C@](C)(CO)C(=O)O)cc2Cl)cccc1-c1cccc(OCCCN2CCC(CO)(C(=O)O)CC2)c1Cl [Example 1116, (R)-1-(3-((3′-((5-((5-carbamoylpyridin-3-yl)methoxy)-4-(((2-carboxy-1-hydroxypropan-2-yl)amino)methyl)-2-chlorophenoxy)methyl)-2-chloro-2′-methyl-[1,1′-biphenyl]-3-yl)oxy)propyl)-4-(hydroxymethyl)piperidine-4-carboxylic Acid] | 0.21 to 10 nM |
| Cc1c(COc2cc(OCc3cncc(C#N)c3)c(CN3CCCC[C@H]3C(=O)O)cc2Cl)cccc1-c1ccc2c(c1)OC(CCN1CC[C@H](O)C1)CO2 (mixture of isomers) [Example 1503, (2S)-1-(5-chloro-2-((5-cyanopyridin-3-yl)methoxy)-4-((3-(3-(2-((S)-3-hydroxypyrrolidin-1-yl)ethyl)-2,3-dihydrobenzo[b][1,4]dioxin-6-yl)-2-methylbenzyl)oxy)benzyl)piperidine-2-carboxylic acid] | 10 to 100 nM |
| C[C@](CO)(NCc1cc(Cl)c(OCc2cccc(-c3cccc(OCCCN4CCC(O)(CO)CC4)c3Cl)c2Cl)cc1OCc1cncc(C#N)c1)C(=O)O [Example 2065, (R)-2-((5-chloro-2-((5-cyanopyridin-3-yl)methoxy)-4-((2,2′-dichloro-3′-(3-(4-hydroxy-4-(hydroxymethyl)piperidin-1-yl)propoxy)-[1,1′-biphenyl]-3-yl)methoxy)benzyl)amino)-3-hydroxy-2-methylpropanoic Acid] | 0.21 to 10 nM |
| Cc1c(COc2cc(OCc3cncc(C#N)c3)c(CN3CCCC[C@H]3C(=O)O)cc2Cl)cccc1-c1cccc(OCCCN2CC[C@H](CO)[C@H](O)C2)c1C [Example 2203, (2S)-1-(5-chloro-2-((5-cyanopyridin-3-yl)methoxy)-4-((3′-(3-((3 S,4R)-3-hydroxy-4-(hydroxymethyl)piperidin-1-yl)propoxy)-2,2′-dimethylbiphenyl-3-yl)methoxy)benzyl)piperidine-2-carboxylic Acid] | 0.21 to 10 nM |
| Cc1c(COc2cc(OCc3cncc(C#N)c3)c(CN(C)C(CO)CO)cc2Cl)cccc1-c1cccc(OCCCN2CCC(F)(F)C2)c1C [Example 4120, 5-((4-chloro-5-((3′-(3-(3,3-difluoropyrrolidin-1-yl)propoxy)-2,2′-dimethyl-[1,1′-biphenyl]-3-yl)methoxy)-2-(((1,3-dihydroxypropan-2-yl)(methyl)amino)methyl)phenoxy)methyl)nicotinonitrile] | 0.21 to 10 nM |
| CC(=O)NC1CCN(CCCOc2cccc(-c3cccc(COc4cc(OCc5cncc(C#N)c5)c(CN[C@](C)(CO)C(=O)O)cc4Cl)c3C)c2Cl)CC1 [Example 1079, (R)-2-((4-((3′-(3-(4-acetamidopiperidin-1-yl)propoxy)-2′-chloro-2-methyl-[1,1′-biphenyl]-3-yl)methoxy)-5-chloro-2-((5-cyanopyridin-3-yl)methoxy)benzyl)amino)-3-hydroxy-2-methylpropanoic Acid] | 0.21 to 10 nM |
| Cc1c(COc2cc(OCc3cncc(C#N)c3)c(CO)cc2Cl)cccc1-c1cccc(OCCCN2CC[C@@H](O)C2)c1Cl [Example 2002, (R)-5-((4-chloro-5-((2′-chloro-3′-(3-(3-hydroxypyrrolidin-1-yl)propoxy)-2-methyl-[1,1′-biphenyl]-3-yl)methoxy)-2-(hydroxymethyl)phenoxy)methyl)nicotinonitrile] | 0.21 to 10 nM |
| Cc1c(COc2cc(OCc3cncc(C#N)c3)c(CN[C@](C)(CO)C(=O)O)cc2Cl)cccc1-c1cccc(OCCCN2CCC(O)CC2)c1C [Example 1059, (R)-2-((5-chloro-2-((5-cyanopyridin-3-yl)methoxy)-4-((3′-(3-(4-hydroxypiperidin-1-yl)propoxy)-2,2′-dimethyl-[1,1′-biphenyl]-3-yl)methoxy)benzyl)amino)-3-hydroxy-2-methylpropanoic Acid] | 0.21 to 10 nM |
| COc1cc(OCc2cccc(-c3cccc(OCCCN4CC[C@@H](O)C4)c3C)c2C)c(Cl)cc1C=O [Example 3032, (R)-5-chloro-4-((3′-(3-(3-hydroxypyrrolidin-1-yl)propoxy)-2,2′-dimethyl-[1,1′-biphenyl]-3-yl)methoxy)-2-methoxybenzaldehyde] | 100 to 2000 nM |
| Cc1c(COc2cc(OCc3cncc(C#N)c3)c(CN[C@H](CO)C(=O)O)cc2Cl)cccc1-c1cccc(OCC(=O)N2CC[C@@H](O)C2)c1 [Example 1006, (R)-2-((5-chloro-2-((5-cyanopyridin-3-yl)methoxy)-4-((3′-(2-((R)-3-hydroxypyrrolidin-1-yl)-2-oxoethoxy)-2-methyl-[1,1′-biphenyl]-3-yl)methoxy)benzyl)amino)-3-hydroxypropanoic Acid] | 10 to 100 nM |
| Cc1c(COc2cc(OCc3cncc(C#N)c3)c(CN(CC3CC3)C(CO)CO)cc2Cl)cccc1-c1cccc(OCCCN2CC[C@@H](O)C2)c1Cl [Example 2113, (R)-5-((4-chloro-5-((2′-chloro-3′-(3-(3-hydroxypyrrolidin-1-yl)propoxy)-2-methyl-[1,1′-biphenyl]-3-yl)methoxy)-2-(((cyclopropylmethyl)(1,3-dihydroxypropan-2-yl)amino)methyl)phenoxy)methyl)nicotinonitrile] | 0.21 to 10 nM |

Reference: patent US10745382B2 (BRISTOL-MYERS SQUIBB COMPANY, priority 2015, dated 2020)
